Reference: a melting point compilation (Tetko et al.; mined from patent text by program, amines drawn as free bases though some values may be those of a salt)

SMILES	melting point [°C]
Nc1cc(OCc2ccccc2)ccc1NC(=O)c1ccc(OCc2ccccc2)c(C23CC4CC(CC(C4)C2)C3)c1	166 to 170
CCCOc1ccccc1-c1nc2cc(NC)ccc2c(=O)[nH]1	204 to 205
Cc1ncc(CN2CC=C(CCc3ccccc3)CC2)c(N)n1	152 to 154
Cc1cccc2c1C1(CCC(=O)NC1=O)CCC2=O (stereo not given)	285 to 287
O=C(O)CCc1cc(OCCCc2cn(-c3ccc(C(F)(F)F)cn3)nc2OCc2ccccc2)nn1-c1ccccc1	159 to 161
Cc1c(Cl)cc(C(=O)C=[N+]=[N-])cc1S(N)(=O)=O	174 to 176
CS(=O)(=O)c1cccnc1Oc1ccc(Cl)c(Cl)c1	95 to 96
CCCCCCCC(=O)N(C)Cc1cccc(-c2ccc(CCC(=O)O)cc2)c1	91
CCc1ccc(NC(=S)SC)cc1	78
CCCCCn1cc(C(=O)O)c2ccc(Cl)cc21	152 to 154
Nc1cccc2c1CN(c1c(F)cc3c(=O)c(C(=O)O)cn(-c4ccc(F)cc4)c3c1F)C2	269 to 274
COCOCCCOn1cnc2cnc(NC=O)nc21	115 to 116
Cc1cccc(COc2cccc(COc3ccc4ccccc4n3)c2)c1C(=O)O	68 to 72
Cc1nc(NC(=O)c2cnn3c(C(F)F)cc(-c4ccc(C(F)(F)F)cc4)nc23)sc1S(=O)(=O)NCCN(C)C	217
O=C(Cn1cc(-c2ccccc2)cc(NC(=O)OCc2ccccc2)c1=O)NC(Cc1ccccc1)C(=O)C(F)(F)F (stereo not given)	147 to 151
CC(O)CN1CCC(c2noc3cc(F)ccc23)CC1 (stereo not given)	45 to 47
Cn1nc(N)nc1NCCCOc1cccc2c(N3CCOCC3)nccc12	178 to 180
O=c1c2c(N3CCNCC3)cc(Cl)cc2n(Cc2ccccc2)c(=O)n1Cc1ccccc1Cl	120 to 125
Cc1noc(NS(=O)(=O)c2cc(-c3ccccc3)cs2)c1Br	108 to 110
CN1CCN(C(=O)CN2C(=O)C(NC(=O)Nc3ccc(Cl)cc3)N=C(c3ccccc3)c3ccccc32)CC1 (stereo not given)	278 to 280
O=C(O)CCCOc1ccc(C2C3CC4CC(C3)CC2C4)cc1 (stereo not given)	163 to 165
Cc1[nH]c(=S)n(Nc2ccc(F)cc2)c1-c1ccccc1	228
CN(C)c1nc2c(c(N3CCN(Cc4ccccc4)CC3)n1)SCCC2	106 to 108

SMILES	melting point [°C]
O=[N+]([O-])C(CO)(CO)c1ccccc1	96 to 97.5
FC(F)(F)c1cccc(-c2ccc3nncn3n2)c1	140 to 143
CC1CN(c2cccc(C(F)(F)F)c2)N=C1NC(=O)C(F)(F)F (stereo not given)	121 to 122
N#Cc1cccc(C2=Nc3ccc(C#CC4(O)CCCCC4)cc3NC(=O)C2)c1	196
O=C(c1ccc(F)cc1)c1ccc(Cl)cn1	98 to 100
NCCc1c[nH]c2ccc(Cc3ccccc3)cc12	150 to 153
CS(=O)(=O)Nc1cc2c(cc1Oc1ccccc1)C(NS(C)(=O)=O)C=C2 (stereo not given)	154
O=c1oc2ccccc2c(O)c1Sc1ccccc1	186 to 189
Nc1nc(N)nc(N2CCC3(CC2)OCCO3)n1	209 to 211
N#Cc1cc([N+](=O)[O-])ccc1N1CCC(O)CC1	114 to 115
CC(C(=O)O)c1c(-c2ccccc2)nn(-c2ccccc2)c1-c1ccccc1 (stereo not given)	95 to 99
CC(=O)N1CCC(C(=O)N2CC[C@@H](N(C)C(=O)c3ccc(C4CC4)cc3)[C@H](c3ccc(Cl)c(Cl)c3)C2)CC1	129 to 133
Nc1cc(C#Cc2ccccc2)c(-c2cc([N+](=O)[O-])c(N)cc2C#Cc2ccccc2)cc1[N+](=O)[O-]	252 to 253
CCN1CN(C)C(=S)N(c2cc(Cl)ccc2C)C1	93 to 95
FC(F)(F)c1cc(Cl)c(-n2cc(C3CC3(Br)Br)nn2)c(Cl)c1 (stereo not given)	156 to 158
COC(=O)COc1cccc(C=Cc2nc(-c3ccccc3)c(-c3ccccc3)o2)c1	79 to 82
Oc1cc2c(cc1CCCCSc1cccnc1)OCC2	130 to 131
CCCCCCn1c2ccc(C)cc2c(=O)c2c1cnn2C	80 to 82
Cc1ccc(S(=O)(=O)N2CCCC2c2cccc(Cl)c2)cc1 (racemic)	107
O=C(c1ccccc1)c1cnc2c(cnn2Cc2ccco2)c1O	102
Cc1c2c(cn1C)NC(=O)C(OC(=O)CCCN1C(=O)c3ccccc3C1=O)N=C2c1ccccc1 (stereo not given)	210 to 212
O=C(O)C=Cc1cccc(-c2cccc([N+](=O)[O-])c2)c1	247 to 248

Continued, values first:

melting point [°C]	SMILES
194 to 195	CC(C)(C)OC(=O)NC(C(=O)Nc1n[nH]c(=S)s1)c1ccccc1 (stereo not given)
91 to 93	COC1=C(OC)C(=O)C2=C(CCC(CCOc3cc(OC)c(OC)c(OC)c3)CC2)C1=O
112 to 113	COC1OCC[C@@H]1NC(=O)[C@H](CC(C)C)NC(=O)OCc1ccccc1 (stereo not given in full)
147 to 149	CCCCNc1nn(C(=O)OC)c2c1c(=O)n(CCC)c1ccccc21
189 to 190	CN(C)C(=O)C(=O)c1c[nH]c2ccc(Br)cc12
116 to 119	COc1ccc(CC(=O)c2c(O)cc(OC)cc2OC)c(OC)c1
82 to 84	Cc1cc(OCC(O)CNC(C)(C)C)ccc1C=O (stereo not given)
165 to 168	CC(=CCCC(C)C1CCC2(C)C3=CCC4C(C)(CCC5(OCCO5)C4(C)C)C3=CCC12C)CO (stereo not given)
123 to 125	COC(=O)c1cccc(N)c1CS(=O)(=O)NC(C)(C)C
240 to 242	CC12C=CC(=O)C=C1CCC1C3=CC(O)C(O)(C(=O)CO)C3(C)CC(O)C12 (stereo not given)
80 to 85	CCOC(=O)N(c1ccc(Cl)cc1)c1ccccc1N=NC(NC(=O)CCl)(C(=O)OCC)C(=O)OCC
245 to 247	O=C(Nc1ccc2[nH]c(=O)sc2c1)C(=O)N1CCC(Oc2ccc(Cl)cc2)CC1
179 to 181	CC1=Cc2cc(-c3nnn[nH]3)ccc2OC1(C)C
284 to 285	Cn1cc(C(=O)O)c(=O)c2cc(F)c(-n3cccc3)cc21
58.5 to 59.5	C#CCOC[C@@H](NC(C)=O)C(=O)OC
110	CCN(C)C(=O)c1cnn(-c2ccc(Cl)cc2)c1-c1ccc(OC)c(OC)c1
184 to 185	CN(C)NC(=O)C1(N2C(=O)c3cccc(Cl)c3C2=O)CCCCC1
205 to 206	CNC(=O)c1c(C)c([N+](=O)[O-])cc2nc(OC)c(OC)nc12
150 to 151	CC(=O)ON1C(C)(C)CC(C(N)=O)C1(C)C (stereo not given)
128 to 130	CCc1cccc2c3c([nH]c12)C(CC)(CC(=O)OC)OCC3 (stereo not given)
125 to 135	COc1cc(C(=O)O)ccc1Cc1c(Cl)n(C)c2cc(Cl)c(CC(C)NC(=O)N(C)C)cc12 (stereo not given)
100 to 102	COC(=O)C1CCCn2c(=O)n(CSC(C)=O)c(=O)n21 (stereo not given)
218 to 219	CCOC(=O)c1sc(SC)c2c1CCc1nc(-c3ccccc3)[nH]c1-2
188	CCNC(=O)c1ccc(F)c(NC(=O)c2cc(C(C)(C)C)nn2CC)c1
99 to 100	CC(C)(C)OC(=O)N1CCN(Cc2ccc([N+](=O)[O-])cc2)CC1
